Patent US4352819A (priority 1980, dated 1982)
Like-named read-outs stand apart in the source and are kept apart here.

Columns and labels:
[1] = tested on: calcium chloride-induced arrhythmias; assay: Calcium chloride test (antiarrhythmic); type: in vivo, rat; conditions: for ED50: iv, read-out: ED50, Calcium chloride, rat
Text: (§1) These compounds were first selected owing to their activity in different experimental arrhythmia models which are used as screening techniques. So the chloroform, aconitine and calcium chloride tests have been used for testing the compounds of the invention as described by J. W. Lawson, J.Pharmacol.exp.Ther. 160, 22-81 (1968) "Antiarrhythmic activity of some isoquinoline derivatives determined by a rapid screening procedure in the mouse".
Cardiac arrhythmia frequently occurs when the levels of serum ions are abnormal, particularly when the calcium level is four times higher than the normal concentration. This is the reason why intravenous administraction of high doses of calcium chloride can elicit the development of dysrhythmias in animals.
In the anaesthetized rat the rapid intravenous injection of calcium chloride causes lethal ventricular fibrillation or ventricular extrasystoles. The evaluation of the activity of the test compound aministered prior to the calcium chloride injection is based on the onset of arrhythmia (M. R. Malinow et al., Arch.int. Pharmacodyn. 102, 55-64 (1955), "The pharmacology of experimental ventricular arrhythmias in the rat I. Antihistamic drugs") or return to sinus rhythm after occasional trouble of rhythm (M. Fekete et al., Med. Exp. 10, 93-102 (1964), "On the antiarrhythmic effect of some thymoleptics: amitriptyline, imipramine, trimepropimine and desmethylimipramine").

[2] = tested on: aconitine-induced arrhythmias; assay: Aconitine test (antiarrhythmic); type: in vivo, rat; conditions: for ED50: Rattus norvegicus, read-out: ED50, Aconitine, rat
Text: as §1
It seems that investigators favour the rat so as to study the protective effect of a compound on arrhythmia induced by aconitine (see: J. L. Junien et al., Arzneim.Forsch. 24, 1743-1747 (1974); L. Szekeres et al., Experimental cardiac arrhythmias and antiarrhythmic drugs, Publishing House of the Hungarian Academy of Sciences (Akademia Kiado), Budapest (1971); M. R. Malinow et al., Arch.int.Pharmacodyn. 102, 55-64 (1955); C. Bianchi et al., Arzneim. Forsch. 18, 845-850 (1968); B. B. Vargaftig et al., J. Pharm. Pharmacol. 27, 697-699 (1975); and M. Fekete et al., Med Exp. 10, 93-102 (1964)).
Test compounds are administered to the urethane-anaesthetized rat prior to the injection of aconitine. Various antiarrhythmic drugs are capable of delaying the onset of aconitine-induced arrhythmias and this model of arrhythmia seems to be suitable for assaying the antiarrhythmic acitivity.

[3] = tested on: ventricular fibrillation induced by chloroform; assay: Chloroform test (antiarrhythmic); type: in vivo; conditions: iv, read-out: ED50, Chloroform, mouse (dose which protects 50% of the mice against ventricular fibrillation induced by chloroform)
Protocol: Five minutes after i.v. injection of the compound under study the mice are placed into a 300 ml beaker containing cotton wool soaked with 20 ml of chloroform. The animals are watched carefully and taken out of the beaker as soon as the second respiratory arrest occured. The heart is then quickly exposed to visual inspection of ventricular rhythm (see Lawson, Loc.cit.).

Row | Compound | ED50 ([1]; Rattus norvegicus) | ED50 [2] | ED50 ([3]; Mus musculus) | ED50 ([1]; anaesthetized rat, compound given prior to i.v. calcium chloride) | ED50 ([3]; mouse, i.v., 5 minutes before chloroform) | protection against arrhythmias induced by calcium chloride ([1]; rat) | ranking in the aconitine test ([2]; rat, compared by ED50)
1 | CCCCNCC(O)COc1ccsc1C(=O)CCc1ccccc1.OCl (centres unmarked) [LG 80-6-00, 1-[3-(2-hydroxy-3-n-butylaminopropoxy)-2-thienyl]-3-phenyl-1-propanone-chlorohydrate] | 5.04 mg/kg | 4.23 mg/kg | 4.16 mg/kg |  |  |  | 
2 | CCCNCC(O)COc1ccccc1C(=O)CCc1ccccc1 (centres unmarked) [Propafenon, Propafenone, reference compound] |  | 2.1 mg/kg |  | 4.49 mg/kg | 3.45 mg/kg |  | 
3 | CCCNCC(O)COc1c(C)csc1C(=O)CCc1ccccc1.OCl (centres unmarked) [LG 80-6-01, 1-[4-methyl-3-(2-hydroxy-3-n-propylaminopropoxy)-2-thienyl]-3-phenyl-1-propanone-chlorohydrate] | 2.59 mg/kg | 1.49 mg/kg | 3.57 mg/kg |  |  | best protection against arrhythmias induced by calcium chloride | best compound in this method
4 | CCCNCC(O)COc1cc(C)sc1C(=O)CCc1ccccc1.OCl (centres unmarked) [LG 80-6-02, 1-[5-methyl-3-(2-hydroxy-3-n-propylaminopropoxy)-2-thienyl]-3-phenyl-1-propanone-chlorohydrate] | 2.87 mg/kg | 22.8 mg/kg | 17.6 mg/kg |  |  |  | 
